Format in all cases: biochemical
Test [1] concerns the target T1, IDE (Homo sapiens, UniProt P14735).
T1 construct: made in house; host or cells: bacteria
T1 sequence (P14735 1-1019): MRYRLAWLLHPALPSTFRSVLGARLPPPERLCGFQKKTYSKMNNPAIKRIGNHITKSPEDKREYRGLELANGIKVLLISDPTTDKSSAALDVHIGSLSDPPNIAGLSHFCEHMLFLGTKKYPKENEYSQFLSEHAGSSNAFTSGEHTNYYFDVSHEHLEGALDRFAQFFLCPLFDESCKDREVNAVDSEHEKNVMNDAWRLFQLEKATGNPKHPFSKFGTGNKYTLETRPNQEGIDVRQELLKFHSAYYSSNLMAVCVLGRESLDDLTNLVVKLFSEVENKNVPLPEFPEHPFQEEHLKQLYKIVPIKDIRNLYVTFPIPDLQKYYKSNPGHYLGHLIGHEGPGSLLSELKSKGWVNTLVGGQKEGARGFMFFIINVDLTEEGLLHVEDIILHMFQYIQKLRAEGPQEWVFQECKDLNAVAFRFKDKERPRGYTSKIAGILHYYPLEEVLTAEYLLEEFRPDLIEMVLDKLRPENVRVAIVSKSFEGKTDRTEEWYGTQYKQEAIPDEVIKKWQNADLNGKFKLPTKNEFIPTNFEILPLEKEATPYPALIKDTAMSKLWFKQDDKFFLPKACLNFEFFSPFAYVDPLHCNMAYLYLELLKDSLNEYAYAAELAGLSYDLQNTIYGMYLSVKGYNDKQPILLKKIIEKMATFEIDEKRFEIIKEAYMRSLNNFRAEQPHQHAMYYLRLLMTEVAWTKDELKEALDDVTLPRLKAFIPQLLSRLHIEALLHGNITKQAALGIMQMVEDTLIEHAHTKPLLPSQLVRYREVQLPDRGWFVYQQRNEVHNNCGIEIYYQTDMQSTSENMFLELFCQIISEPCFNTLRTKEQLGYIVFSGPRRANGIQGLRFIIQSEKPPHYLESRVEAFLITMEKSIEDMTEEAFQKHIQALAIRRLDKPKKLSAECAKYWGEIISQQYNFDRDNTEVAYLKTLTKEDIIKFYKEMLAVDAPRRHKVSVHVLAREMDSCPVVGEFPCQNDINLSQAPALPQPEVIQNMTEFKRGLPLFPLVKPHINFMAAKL
Briefly: IDE protease activity assay with FRET1 substrate. To be noted: Ki converted from IC50 with the Cheng-Prusoff equation.

The test system of another test is 15 different proteases. Briefly: Selectivity of P12-3A against 15 other proteases (MMPs and peptidases of different classes). Particulars: P12-3A 100 μM. How it is done:
FIG. 8A-B. Selectivity of P12-3A for IDE vis-à-vis other proteases. Activity of P12-3A (100 μM) against (A) multiple matrix-metalloproteases (MMPs) and (B) multiple peptidases of different protease classes. […] Data are mean±SEM, n=8-16 per group. P<0.05 by 2-tailed Student's t-test. […] See Experimental Procedures for details. NEP, neprilysin; mCatD, murine cathepsin D; hCatD, human cathepsin D.
(§1) Degradation Assays—IDE activity was quantified by monitoring the degradation of (7-methoxycoumarin-4-yl)acetic acid-[…](2,4-dinitrophenyl) (FRET1, 5 μM) (49,55), fluoresceinated and biotinylated amyloid β-protein (FAβB; 500 nM) or recombinant human insulin (50 nM) in PBS supplemented with 0.05% BSA. FRET1 degradation was measured by changes in fluorescence (λex=340 nm, λem=420 nm); FAβB degradation was monitored by fluorescence polarization (λex=488 nm, λem=525 nm), as described (56); and insulin degradation was quantified by ELISA. In vitro activity assays incorporated recombinant human IDE (1 nM) purified from bacteria (35). For quantitation of insulin degradation in primary murine skin fibroblasts, cells (1×10^5/well) were plated in 96-well plates and maintained in DMEM supplemented with 10% fetal bovine serum (FBS), 2 mM glutamine, penicillin and streptomycin. […]

Test [2] deals with T1, IDE. Briefly: IDE protease activity assay, insulin degradation quantified by ELISA. How it is done:
To assess the extent to which these peptide sequences inhibit IDE, we quantified their potency in protease activity assays using recombinant human IDE and two different substrates: FRET1, a fluorogenic peptide (45), and recombinant human insulin.
(§2) Degradation Assays—IDE activity was quantified by monitoring the degradation of (7-methoxycoumarin-4-yl)acetic acid-[…](2,4-dinitrophenyl) (FRET1, 5 μM) (49,55), fluoresceinated and biotinylated amyloid β-protein (FAβB; 500 nM) or recombinant human insulin (50 nM) in PBS supplemented with 0.05% BSA. FRET1 degradation was measured by changes in fluorescence (λex=340 nm, λem=420 nm); FAβB degradation was monitored by fluorescence polarization (λex=488 nm, λem=525 nm), as described (56); and insulin degradation was quantified by ELISA. In vitro activity assays incorporated recombinant human IDE (1 nM) purified from bacteria (35). For quantitation of insulin degradation in primary murine skin fibroblasts, cells (1×10^5/well) were plated in 96-well plates and maintained in DMEM supplemented with 10% fetal bovine serum (FBS), 2 mM glutamine, penicillin and streptomycin. After addition of insulin (10 nM or 100 nM), samples of conditioned medium were removed daily and quickly frozen, then insulin levels were quantified in parallel by ELISA according to manufacturer's recommendations (Crystal Chem, Downers Grove, Ill., USA). Assessment of the activity of P12-3A against a variety of matrix-metalloproteases was conducted using the Matrix Metalloproteinase (MMP) Inhibitor Profiling Kit, Fluorometric RED (Enzo Life Sciences, Inc., Farmingdale, N.Y., USA) according to manufacturer's recommendations using the broad-spectrum MMP inhibitor, NNGH, as a positive control.
A general note: ELISA stands for enzyme-linked immunosorbent assay.

In test [3] the target is T1, IDE. Briefly: IDE activity assay, FAβB (amyloid β-protein) degradation by fluorescence polarization. To be noted: P12-3A 100 μM. Here is the method:
as §2, with “Assessment of the activity of P12-3A against a variety of matrix-metalloproteases was conducted using the Matrix Metalloproteinase (MMP) Inhibitor Profiling Kit, Fluorometric RED (Enzo Life Sciences, Inc., Farmingdale, N.Y., USA) according to manufacturer's recommendations using the broad-spectrum MMP inhibitor, NNGH, as a positive control.” left out

Test [4] has as its target T1, IDE. Briefly: Vulnerability of peptides to degradation by IDE: potency after 0 or 4 h pre-incubation with IDE, FRET1 assay. To be noted: 4-h incubation with IDE.
From the text: FIG. 2. Vulnerability of peptides to degradation by IDE assessed by activity assays.
Because IDE is a peptidase, it was critical to determine whether the peptides were degraded by IDE over time. […] Because this peptide is capable of forming a disulfide bond between its two cysteines, but was not deliberately cyclized prior to testing, we suspect that the peptide (and related variants) may have cyclized over time, contributing to its stability. […]
as §1, with “In vitro activity assays incorporated recombinant human IDE (1 nM) purified from bacteria (35).” left out

The values that follow come from patent US11555055B2, “Peptide inhibitors of insulin-degrading enzyme” (The Regents of the University of California, priority 2017, dated 2023).

SMILES strings stand for the structures. Where a SMILES comes first, the peptide text is derived from it. Bridges are numbered along the chain shown (N, C = ends).

What is called Ki is the equilibrium dissociation constant of an inhibitor or competing ligand from its target. As for `CC(C)C[C@H](NC(=O)[C@H](CO)NC(=O)[C@@H](N)CCC(N)=O)C(=O)N1CCC[C@H]1C(=O)N[C@@H](Cc1c[nH]c2ccccc12)C(=O)N[C@H]1CSSC[C@@H](C(=O)N[C@H](C(=O)N[C@H](C(N)=O)[C@@H](C)O)C(C)C)NC(=O)[C@H](Cc2c[nH]cn2)NC(=O)[C@@H]2CCCN2C(=O)[C@H](Cc2ccc(O)cc2)NC1=O` [Peptide P12-3A] (H-QSLPWCYPHCVT-NH2; disulfide 6-10 (inferred)), the Ki came to 10 ± 0.4 µM on IDE [1]; 2.5 ± 0.31 µM on IDE [2] (deliberately cyclized, highly pure cosmetic-grade P12-3A, n=6, read-out: Ki against insulin degradation); 4.1 ± 0.3 µM at IDE [2] (substrate recombinant human insulin, Ki converted from IC50 with the Cheng-Prusoff equation, read-out: Ki Insulin). The “inhibition of 15 different proteases” value with 15 different proteases was “essentially no inhibition”. Moreover, the “inhibition of IDE in selectivity panel” value on IDE [3] is “significant inhibition”. Moreover, at IDE [4], the “increase in potency at the 4-h time point relative to t=0” value is on record as 1 fold.
